Earlier results on one molecule are cited in US20070148249A1, “Method of preparation of oral solid dosage form with instant release of acting” (priority 2003, published 2007).

Read-outs that look alike come from different tables or passages of the source.

On to `CC(C)(C)NC(=O)[C@H]1CC[C@H]2[C@@H]3CC[C@H]4NC(=O)C=C[C@]4(C)[C@H]3CC[C@]12C` [Finasteride, (5α,17β)-N-(1,1-dimethylethyl)-3-oxo-4-azaandrost-1-en-17-carboxamide], for which the Solubility result by setting is: (in chloroform and lower alcohols) “well soluble”; (in water) “almost insoluble”.
